Experiment [1] has as its target T1, Retinoic acid receptor RXR-alpha (Homo sapiens) (UniProt P19793).
T1 sequence (whole entry): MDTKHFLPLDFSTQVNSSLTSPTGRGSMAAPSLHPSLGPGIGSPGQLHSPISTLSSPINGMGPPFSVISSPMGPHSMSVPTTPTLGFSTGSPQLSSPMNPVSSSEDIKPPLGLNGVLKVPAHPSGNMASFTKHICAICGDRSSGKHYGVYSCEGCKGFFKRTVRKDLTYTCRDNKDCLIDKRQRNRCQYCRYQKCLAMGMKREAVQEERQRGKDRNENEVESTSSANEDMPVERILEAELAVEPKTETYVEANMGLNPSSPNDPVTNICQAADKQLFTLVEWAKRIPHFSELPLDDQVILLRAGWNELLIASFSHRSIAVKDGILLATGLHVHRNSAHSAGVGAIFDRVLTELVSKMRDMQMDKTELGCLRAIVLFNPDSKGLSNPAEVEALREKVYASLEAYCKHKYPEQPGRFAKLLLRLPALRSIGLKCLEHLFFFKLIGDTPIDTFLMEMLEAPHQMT
Nature of the experiment: Transrepression of GAL4-fused RXRalpha LBD (unknown origin) expressed in 293T cells assessed as inhibition of 9-cis-RA-induced transcription at 50 uM measured after 12 hrs by dual-luciferase reporter gene assay. Format: cell-based. (In general: A reporter such as luciferase makes a cellular process visible.)

Experiment [2] deals with T1, Retinoic acid receptor RXR-alpha (Homo sapiens). Kind of experiment: Transrepression of GAL4-fused RXRalpha LBD (unknown origin) expressed in 293T cells assessed as inhibition of 9-cis-RA-induced transcription measured after 12 hrs by dual-luciferase reporter gene assay. The class given is cell-based.
Experiment [3] deals with HeLa. Nature of the experiment: Cytotoxicity against human HeLa cells assessed as inhibition of cell proliferation at 50 uM measured after 48 hrs by MTT assay. Format: functional. In general terms: Formazan colour is commonly taken as a measure of viable cells.
Experiment [4] concerns HepG2. Kind of experiment: Cytotoxicity against human HepG2 cells assessed as reduction in cell viability at 50 uM measured after 48 hrs by MTT assay. Format: functional, cell-based.
In experiment [5] the test system is MCF7. Nature of the experiment: Cytotoxicity against human MCF7 cells assessed as reduction in cell viability at 50 uM measured after 48 hrs by MTT assay. The class given is functional, cell-based.
For experiment [6], the system named is SMMC-7721. Kind of experiment: Cytotoxicity against human SMMC7721 cells assessed as reduction in cell viability at 50 uM measured after 48 hrs by MTT assay. The class given is functional, cell-based.
Experiment [7] concerns HeLa. Nature of the experiment: Induction of apoptosis in human HeLa cells assessed as increase in cleaved PARP expression at 20 uM by Western blot analysis. The class given is functional, cell-based. As to conditions: TDE = time-dependent effect. (A western blot detects proteins with antibodies after separation by electrophoresis.)
The test system of experiment [8] is HeLa. Nature of the experiment: Induction of apoptosis in human HeLa cells assessed as increase in cleaved PARP expression after 24 hrs by Western blot analysis. Format: functional, cell-based.
Experiment [9] deals with HeLa. Kind of experiment: Induction of apoptosis in human HeLa cells assessed as increase in caspase-8 activity at 20 uM measured after 10 hrs by Caspase-Glo luminescence assay. Format: functional, cell-based.
In experiment [10] the test system is HeLa. Kind of experiment: Induction of apoptosis in human HeLa cells assessed as increase in caspase-3 activity at 20 uM measured after 10 hrs by Caspase-Glo luminescence assay. The class given is functional, cell-based.
The target of experiment [11] is T1, Retinoic acid receptor RXR-alpha (Homo sapiens). Nature of the experiment: (§1) Binding affinity to recombinant human RXRalpha LBD ([…] residues) expressed in Escherichia coli BL21 (DE3) by fluorescence quenching assay.
In experiment [12] the target is T2, Retinoic acid receptor RXR-alpha (Homo sapiens, UniProt P19793).
T2 sequence (P19793 whole entry): T1 sequence (whole entry)
The experiment is described as §1.

Experiment [13] deals with HeLa. Kind of experiment: Cytotoxicity against human HeLa cells assessed as cell viability at 50 uM measured after 48 hrs by MTT assay. The class given is functional. The note with it: read-out: Activity.
Experiment [14] deals with HepG2. Nature of the experiment: Cytotoxicity against human HepG2 cells assessed as cell viability at 50 uM measured after 48 hrs by MTT assay. The class given is functional. The note with it: HepG2, 48 h, read-out: Activity.
Experiment [15] relates to MCF7. Kind of experiment: Cytotoxicity against human MCF7 cells assessed as cell viability at 50 uM measured after 48 hrs by MTT assay. Format: functional. The note with it: MCF7, 48 h, read-out: Activity.
Experiment [16] concerns SMMC-7721. Nature of the experiment: Cytotoxicity against human SMMC7721 cells assessed as cell viability at 50 uM measured after 48 hrs by MTT assay. The class given is functional. The note with it: SMMC-7721, 48 h, read-out: Activity.
Experiment [17] has as its system HeLa. Nature of the experiment: Induction of apoptosis in human HeLa cells assessed as increase in cleaved PARP expression at 50 uM by Western blot analysis. Format: functional, cell-based. The note with it: TDE = time-dependent effect.
The test system of experiment [18] is HeLa. Kind of experiment: Induction of apoptosis in human HeLa cells assessed as increase in caspase-8 activity at 50 uM measured after 10 hrs by Caspase-Glo luminescence assay. The class given is functional, cell-based.
Experiment [19] concerns HeLa. Nature of the experiment: Induction of apoptosis in human HeLa cells assessed as increase in caspase-3 activity at 50 uM measured after 10 hrs by Caspase-Glo luminescence assay. The class given is functional, cell-based.

Activity calls are given as the source filed them. The calls are words filed in the database; no cut-off is given here.

For `COc1cc(-c2cc(=O)c3c(O)cc(O)cc3o2)ccc1O`, the inhibition (usually how much of the control response was suppressed) in experiment [1] was “Active”. Further, the inhibition result in experiment [2] was “Dose-dependent effect”.

For `CC(C)=CCOc1cc2c(=O)c3c(O)cc(O)cc3oc2cc1O`, the inhibition entry in [1] is “Active”. Besides, in [2], the inhibition entry is “Dose-dependent effect”. Besides, the inhibition at 50 µM in [3] was over 50%. Further, the outcome in experiment [4], in [5], in [6] and in experiment [10] was inactive. Also, the Activity entry in experiment [7] was “Tde”; in [8], “Dose-dependent effect”; in experiment [11], “Dose-dependent effect”. For the same molecule, in experiment [9], the result was Active. Further, the Kd – broadly, the concentration at which binding is half-saturated – in experiment [12] turned out to be 14 µM.

`COc1ccc2c(=O)c3cccc(O)c3oc2c1`: the viability at 50 µM in experiment [13], in [14], in experiment [15] and in experiment [16] was under 50% each time.

With `COc1cc([C@H]2OC(=O)[C@H]3[C@@H]2CO[C@@H]3c2ccc(O)c(OC)c2)ccc1O`, in experiment [1], the inhibition result is “Active”. The viability at 50 µM in experiment [13], in experiment [14], in experiment [15] and in experiment [16] was under 50% in each case.

As to `CC(C)c1cc(=O)c2c(O)cc(O)cc2o1`, in experiment [1], the inhibition entry was “Active”.

Consider `CC[C@H](C)c1cc(=O)c2c(O)cc(O)cc2o1`, for which, in experiment [1], the inhibition entry is “Active”. In experiment [2], the inhibition entry was “Dose-dependent effect”. Also, the inhibition at 50 µM in experiment [3] is over 50%. In addition, the result in [4], in [5], in experiment [6] and in experiment [19] was inactive. For the same molecule, the Activity result in experiment [17] was “Tde”; in [8] it was “Dose-dependent effect”; in [11] it was “Dose-dependent effect”. Further, in experiment [18], the result was Active. The Kd in experiment [12] is 68.3 µM.

`Cc1cc2c(cc1-c1cc(/C=C/C(=O)O)ccc1O)C(C)(C)CCC2(C)C`: the Activity result in [11] is “Dose-dependent effect”.

(Values after ChEMBL document CHEMBL4316653, “Cytotoxic Components from Hypericum elodeoides Targeting RXRα and Inducing HeLa Cell Apoptosis through Caspase-8 Activation and PARP Cleavage” (J Nat Prod, 2019).)
